# Source: patent US20160304957A1, “TREATMENT AND MODULATION OF GENE EXPRESSION AND SKIN AGING” (DSM NUTRITIONAL PRODUCTS LTD., priority 2006, published 2016)
# Test system: HaCaT human keratinocytes
# Test: Affymetrix GeneChip microarray, transcriptional response to β-carotene and/or UVA
# Assay type: cell-based
# Method: The cell culture experiments were carried out as described. Briefly, a subclone of passage 65 HaCaT keratinocytes, selected for differentiation capacity, was used at passages 16 to 23 after subcloning. 2×10^5 cells were seeded per 60 millimeter dish. Starting the following day, the cells were pretreated for 2 days with β-carotene at 1.5 μM, a typical concentration in human plasma after moderate dietary supplementation)
# β-carotene-containing medium was prepared as follows. Fresh all-E-β-carotene (DSM Nutritional Products, Kaiseraugst, Switzerland) stock solution in THF (containing 0.025% BHT; Fluka Chemie A G, Switzerland) was diluted 1:2 with ethanol and added to cell culture medium to a final concentration of 1.5 μM β-carotene. The solvent concentration in the medium was 0.5% for all treatments. β-carotene-containing medium was prepared fresh for the daily medium changes.
# On day 3 of the experiment, the cells were irradiated with a Hönle sun lamp Sol 500 (270 kJ/m^2; Dr. Hönle, Germany).
# Five independent, factorially designed cell irradiation experiments were analyzed by microarray hybridization. For each experiment, one chip was hybridized per treatment condition. GeneChip® analysis was done as described in [132], which is incorporated by reference, as if recited in full herein. Gene regulation by β-carotene and/or UVA was calculated relative to placebo.
# Changes in gene expression were included in further analysis only if the change factor was […], and if unpaired t-tests yielded p values≦0.05. Upregulations by a […] are labeled bold, downregulations by a change factor of […] are labeled bold italics. (Table 1) To identify the pathways affected by the treatments functional information on the genes was retrieved from public literature databases.
smiles,measurement,setting,value
"CC1=C(/C=C/C(C)=C/C=C/C(C)=C/C=C/C=C(C)/C=C/C=C(C)/C=C/C2=C(C)CCCC2(C)C)C(C)(C)CCC1 [β-carotene, All-E-β-carotene]",NCF2; p67-phox; neutrophil oxidase factor (M32011) change factor,UVA and β-carotene 1.5 μM,−0.16
same,NF-κB subunit (S78771) change factor,UVA and β-carotene 1.5 μM,0.56
same,NF-κB subunit (X61498) change factor,UVA and β-carotene 1.5 μM,0.7
same,NFκB; p50 (S76638) change factor,UVA and β-carotene 1.5 μM,0.55
same,NOL1; p120 nucleolar antigen (X55504) change factor,UVA and β-carotene 1.5 μM,0.94
same,NOTCH3 (U97669) change factor,UVA and β-carotene 1.5 μM,−1.37
same,NOV (X96584) change factor,UVA and β-carotene 1.5 μM,0.72
same,NOXA (D90070) change factor,UVA and β-carotene 1.5 μM,0.74
same,NRF1 (L24123) change factor,UVA and β-carotene 1.5 μM,−0.65
same,"NRF2, subunit beta 1 (U13045) change factor",UVA and β-carotene 1.5 μM,−0.11
same,OSR1; oxidative-stress responsive 1 (AB017642) change factor,UVA and β-carotene 1.5 μM,0.59
same,PAR-1; thrombin receptor (M62424) change factor,UVA and β-carotene 1.5 μM,−0.05
same,PAR-2; proteinase activated receptor-2 (U34038) change factor,UVA and β-carotene 1.5 μM,1.91
same,"PAR-2; proteinase activated receptor-2 (U34038, second entry) change factor",UVA and β-carotene 1.5 μM,1.34
same,PAR-2; proteinase activated receptor-2 (U67058) change factor,UVA and β-carotene 1.5 μM,3.32
same,PAR-4; protease-activated receptor 4 (AF055917) change factor,UVA and β-carotene 1.5 μM,−0.57
same,RAIDD; death adaptor molecule (U79115) change factor,UVA and β-carotene 1.5 μM,−0.66
same,RB1 (L49229) change factor,UVA and β-carotene 1.5 μM,−1.13
same,RB2/p130 (X74594) change factor,UVA and β-carotene 1.5 μM,−0.85
same,RETSDR1; retinal short-chain dehydrogenase/reductase (AF061741) change factor,UVA and β-carotene 1.5 μM,−0.06
same,RPA; replication protein A 14 kda subunit (rpa) (L07493) change factor,UVA and β-carotene 1.5 μM,−0.52
same,RXRα (U66306) change factor,UVA and β-carotene 1.5 μM,−0.61
same,RXRα (X52773) change factor,UVA and β-carotene 1.5 μM,−0.57
same,Requiem (AF001433) change factor,UVA and β-carotene 1.5 μM,0.32
same,SMAD 1 (U59423) change factor,UVA and β-carotene 1.5 μM,−0.57
same,SMAD3 (U68019) change factor,UVA and β-carotene 1.5 μM,0.01
same,"SMAD3 (U68019, second entry) change factor",UVA and β-carotene 1.5 μM,−0.09
same,SMAD4 (U44378) change factor,UVA and β-carotene 1.5 μM,−0.67
same,SMAD5 (U59913) change factor,UVA and β-carotene 1.5 μM,−0.84
same,SMAD6 (AF035528) change factor,UVA and β-carotene 1.5 μM,−24.2
same,SMAD7 (AF010193) change factor,UVA and β-carotene 1.5 μM,−0.63
same,SMRT (U37146) change factor,UVA and β-carotene 1.5 μM,−1.22
same,STK15; BTAK (AF011468) change factor,UVA and β-carotene 1.5 μM,−1.85
same,TDAG51; PQ-rich protein; PHLDA1 (Z50194) change factor,UVA and β-carotene 1.5 μM,6.19
same,TGFβ; transforming growth factor β (X02812) change factor,UVA and β-carotene 1.5 μM,0.46
same,TIAR; nucleolysin tiar (M96954) change factor,UVA and β-carotene 1.5 μM,−0.08
same,"TIEG, EGRα (AF050110) change factor",UVA and β-carotene 1.5 μM,−0.11
same,TLR3; toll-like receptor 3 (U88879) change factor,UVA and β-carotene 1.5 μM,−0.91
same,TOP2; topoisomerase II (J04088) change factor,UVA and β-carotene 1.5 μM,−0.86
same,TRADD; TNF receptor-1 associated protein (L41690) change factor,UVA and β-carotene 1.5 μM,−0.85
same,TRAIL; TNF-related apoptosis inducing ligand (U37518) change factor,UVA and β-carotene 1.5 μM,−2.66
same,TRIP14; ‘2-5’ oligoadenylate synthetase (AJ225089) change factor,UVA and β-carotene 1.5 μM,0.67
same,TRIP (U77845) change factor,UVA and β-carotene 1.5 μM,−1.35
same,TSSC3 (AF035444) change factor,UVA and β-carotene 1.5 μM,0.7
same,TSSC3/IPL (AF001294) change factor,UVA and β-carotene 1.5 μM,1.02
same,VEGF (AF022375) change factor,UVA and β-carotene 1.5 μM,0.78
same,VEGF (AF024710) change factor,UVA and β-carotene 1.5 μM,1.86
same,VEGF (M63978) change factor,UVA and β-carotene 1.5 μM,1.09
same,VEGFR2; VEGF receptor 2; KDR; FLK-1kdr/flk-1 (AF035121) change factor,UVA and β-carotene 1.5 μM,−0.28
same,WEE1 (X62048) change factor,UVA and β-carotene 1.5 μM,0.05
same,WNT5A (I20861) change factor,UVA and β-carotene 1.5 μM,−2.22
same,"WNT5A (I20861, second entry) change factor",UVA and β-carotene 1.5 μM,−3.34
same,XRCC4 (U40622) change factor,UVA and β-carotene 1.5 μM,−0.01
same,bFGF; basic fibroblast growth factor; FGF2 (M27968) change factor,UVA and β-carotene 1.5 μM,0.82
same,bilirubin udp-glucuronosyltransferase isozyme 2 (M57951) change factor,UVA and β-carotene 1.5 μM,−0.66
same,bullous pemphigoid autoantigen bp180 (M91669) change factor,UVA and β-carotene 1.5 μM,−0.57
same,c-myc (V00568) change factor,UVA and β-carotene 1.5 μM,3.22
same,"c-myc (V00568, second entry) change factor",UVA and β-carotene 1.5 μM,2.45
same,c-myc binding protein (mbp-1) (M55914) change factor,UVA and β-carotene 1.5 μM,0.54
same,"caspase 2, ICH-1S (U13022) change factor",UVA and β-carotene 1.5 μM,−0.62
same,caspase 7 (U67319) change factor,UVA and β-carotene 1.5 μM,0.31
same,ceruloplasmin (ferroxidase) (M13699) change factor,UVA and β-carotene 1.5 μM,1
same,"collagen type IV, α-2 (COL4A2) (X05610) change factor",UVA and β-carotene 1.5 μM,−0.98
same,"collagen type IV, α-5 (COL4A5) (M58526) change factor",UVA and β-carotene 1.5 μM,−1.16
same,"collagen type IV, α-6 (COL4A6) (D21337) change factor",UVA and β-carotene 1.5 μM,−0.71
same,"collagen type VII, α-1 (COL7A1) (L02870) change factor",UVA and β-carotene 1.5 μM,−0.83
same,connexin 31 (AF099730) change factor,UVA and β-carotene 1.5 μM,2.3
same,connexin 45 (U03493) change factor,UVA and β-carotene 1.5 μM,0.26
same,coproporphyrinogen oxidase (D16611) change factor,UVA and β-carotene 1.5 μM,−0.7
same,cyclin E2 (AF091433) change factor,UVA and β-carotene 1.5 μM,0.26
same,cyclin E (M73812) change factor,UVA and β-carotene 1.5 μM,1.75
same,desmocollin type 4 (D17427) change factor,UVA and β-carotene 1.5 μM,−1.71
same,ferritin heavy chain (L20941) change factor,UVA and β-carotene 1.5 μM,0.59
same,frizzled-2 (I37882) change factor,UVA and β-carotene 1.5 μM,−1.38
same,frizzled-6 (AB012911) change factor,UVA and β-carotene 1.5 μM,−1.16
same,haemochromatosis protein (hla-h) (U60319) change factor,UVA and β-carotene 1.5 μM,−0.61
same,hsp40; heat shock protein 40 (U40992) change factor,UVA and β-carotene 1.5 μM,−0.07
same,integrin α6 (X53586) change factor,UVA and β-carotene 1.5 μM,−0.76
same,integrin α6b (S66213) change factor,UVA and β-carotene 1.5 μM,−0.46
same,"integrin α6b (S66213, second entry) change factor",UVA and β-carotene 1.5 μM,−0.73
same,jagged2 (jag2) (AF029778) change factor,UVA and β-carotene 1.5 μM,−0.67
same,keratin 2e (KRT2E); Keratin 2A (AF019084) change factor,UVA and β-carotene 1.5 μM,−0.69
same,keratin 5 (M21389) change factor,UVA and β-carotene 1.5 μM,0.81
same,keratin 15 (J00124) change factor,UVA and β-carotene 1.5 μM,0.96
same,keratin 16 (M28439) change factor,UVA and β-carotene 1.5 μM,−0.38
same,keratin 17 (Z19574) change factor,UVA and β-carotene 1.5 μM,0.6
same,mKI67a mrna (long type) for antigen of monoclonal antibody KI-67 (X65550) change factor,UVA and β-carotene 1.5 μM,−0.87
same,"mKI67a mrna (long type) for antigen of monoclonal antibody KI-67 (X65550, second entry) change factor",UVA and β-carotene 1.5 μM,−1.59
same,ornithine decarboxylase (M33764) change factor,UVA and β-carotene 1.5 μM,0.57
same,ornithine decarboxylase (X16277) change factor,UVA and β-carotene 1.5 μM,0.37
same,p21; wild-type p53 activated fragment-1 (WAF1) (U03106) change factor,UVA and β-carotene 1.5 μM,0.21
same,p33; ING1b (AB024401) change factor,UVA and β-carotene 1.5 μM,0.64
same,p160ROCK (U43195) change factor,UVA and β-carotene 1.5 μM,−0.55
same,protoporphyrinogen oxidase (D38537) change factor,UVA and β-carotene 1.5 μM,−0.54
same,rTS α (X67098) change factor,UVA and β-carotene 1.5 μM,−0.47
same,serpinB1 (M93056) change factor,UVA and β-carotene 1.5 μM,0.57
same,stimulator of Fe transport (AF020761) change factor,UVA and β-carotene 1.5 μM,1.03
same,thioredoxin reductase (X91247) change factor,UVA and β-carotene 1.5 μM,1.48
same,thymidylate synthase (X02308) change factor,UVA and β-carotene 1.5 μM,−0.56
same,transferrin receptor (X01060) change factor,UVA and β-carotene 1.5 μM,0.91
same,uroporphyrinogen III synthase (J03824) change factor,UVA and β-carotene 1.5 μM,−0.61
same,α topoisomerase truncated-form (L47276) change factor,UVA and β-carotene 1.5 μM,−0.81
same,reduction of UVA induction of MMP-10,"β-carotene 1.5 μM, 5 hours after UVA",30%
